Experimental data as given in publication PMC10178091, “The GRPR Antagonist [^99mTc]Tc-maSSS-PEG2-RM26 towards Phase I Clinical Trial: Kit Preparation, Characterization and Toxicity” (Diagnostics, 2023).
Like-named read-outs stand apart in the source and are kept apart here. Where a SMILES comes first, the peptide text is derived from it. [ ]: non-standard residue; d: D form. The star is where a group is joined. Sta = CC(C)C[C@H](N)[C@@H](O)CC(=O)O; Mercaptoacetyl = O=C(CS)*; AEEA = NCCOCCOCC(=O)O

Legend:
[1] = Ex vivo biodistribution / in vivo GRPR targeting in PC-3 tumor-bearing mice; parameters: species or system Balb/c nu/nu mice; conditions: mouse, total radioactivity, 1 h pi, n = 4; for tissue to tissue ratio at 1 h: 40 pmol, ± SD
Method: (§1) Randomly selected vials were stored at 4 °C at our laboratory for long-term testing. Within 18 months of storage, the vials were radiolabeled under the same conditions mentioned earlier. Additionally, the GRPR-binding in vitro was tested on a different batch of PC-3 cells, following the same protocol mentioned earlier. The in vivo GRPR-targeting properties of [^99mTc]Tc-maSSS-PEG2-RM26 were tested on PC-3 tumor-bearing Balb/c nu/nu mice (the cells (6 × 10^6 cells/mouse) were inoculated into the mice 4 weeks prior to the experiment). On the day of the experiment, when palpable tumors developed, a group of mice (n = 4) was injected with [^99mTc]Tc-maSSS-PEG2-RM26 (30 kBq/40 pmol) and another group (n = 4) was additionally co-injected with NOTA-PEG2-RM26 (5 nmol) to block GRPR. The mice were euthanized 1 h post-injection and the organs of interest were collected, weighed, and measured for their radioactivity content.

GRPR [2] = molecular target: T1, GRPR (Homo sapiens, UniProt P30550); assay: as above; parameters: species or system Balb/c nu/nu mice; conditions: 1 h pi, kit stored 18 months, p < 0.001, n = 4
T1 construct: endogenous in cells; host or cells: PC-3 xenograft tumours in Balb/c nu/nu mice
T1 sequence (P30550 whole entry): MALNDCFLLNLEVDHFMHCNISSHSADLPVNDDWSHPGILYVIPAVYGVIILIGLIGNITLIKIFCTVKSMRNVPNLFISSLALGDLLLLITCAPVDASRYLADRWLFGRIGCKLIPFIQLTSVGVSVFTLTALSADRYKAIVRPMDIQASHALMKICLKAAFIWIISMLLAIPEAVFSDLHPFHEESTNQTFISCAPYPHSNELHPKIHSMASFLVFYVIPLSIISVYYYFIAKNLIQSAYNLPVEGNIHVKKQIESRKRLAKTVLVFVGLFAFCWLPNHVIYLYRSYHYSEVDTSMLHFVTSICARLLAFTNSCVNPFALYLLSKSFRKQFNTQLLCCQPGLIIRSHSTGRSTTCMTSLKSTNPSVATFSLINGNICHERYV
Method: as §1

GRPR [3] = assay: as above; parameters: species or system Balb/c nu/nu mice; conditions: 1 h pi, kit stored 18 months, p < 0.001, n = 4
Method: as §1

GRPR on PC-3 cells = molecular target: T2, GRPR on PC-3 cells (Homo sapiens, UniProt P30550); assay: In vitro binding specificity assay on PC-3 cells, with and without pre-blocking; conditions: 1 nM
T2 construct: endogenous in cells; host or cells: PC-3 cells
T2 sequence (P30550 whole entry): as above
Method: The radiolabeled peptide binding to GRPR was tested in PC-3 cells (GRPR +) by the addition of 1 nM of [^99mTc]Tc-maSSS-PEG2-RM26 to the cells (~10^6 cells, in triplicates), with and without pre-blocking of receptors, by the addition of 1 µM of NOTA-PEG2-RM26 (10 min at room temperature). After incubation at 37 °C for 1 h, the cells were treated with trypsin-EDTA, collected, and measured for their radioactivity content.
as §1

GRPR [4] = molecular target: GRPR; parameters: method as in PMID 33573232; conditions: cited from earlier work
[5] = parameters: method as in PMID 36980517; conditions: phase I clinical study; cited from earlier work

What does the source list for `CC(C)C[C@H](NC(=O)C[C@H](O)[C@H](CC(C)C)NC(=O)[C@H](Cc1c[nH]cn1)NC(=O)CNC(=O)[C@@H](NC(=O)[C@H](C)NC(=O)[C@H](Cc1c[nH]c2ccccc12)NC(=O)[C@H](CCC(N)=O)NC(=O)[C@@H](Cc1ccccc1)NC(=O)COCCOCCNC(=O)[C@H](CO)NC(=O)[C@H](CO)NC(=O)[C@H](CO)NC(=O)CS)C(C)C)C(N)=O` [[^99mTc]Tc-maSSS-PEG2-RM26, metal not drawn] (Mercaptoacetyl-SSS[AEEA][dF]QWAVGH[Sta]L-NH2)?
tissue uptake at 1 h ([1]; Balb/c nu/nu, blood, PC-3 xenografts, 40 pmol / 30 kBq co-injected with 5 nmol NOTA-PEG2-RM26, average ± SD, read-out: Uptake in blood, blocked): 0.3 ± 0.4 %ID/g; tissue uptake at 1 h ([1]; Balb/c nu/nu, bone, PC-3 xenografts, 40 pmol / 30 kBq co-injected with 5 nmol NOTA-PEG2-RM26, average ± SD, read-out: Uptake in bone, blocked): 0.042 ± 0.009 %ID/g; tissue uptake at 1 h ([1]; Balb/c nu/nu, kidneys, PC-3 xenografts, 40 pmol / 30 kBq co-injected with 5 nmol NOTA-PEG2-RM26, average ± SD, read-out: Uptake in kidneys, blocked): 5 ± 0.6 %ID/g; tissue uptake at 1 h ([1]; Balb/c nu/nu, liver, PC-3 xenografts, 40 pmol / 30 kBq co-injected with 5 nmol NOTA-PEG2-RM26, average ± SD, read-out: Uptake in liver, blocked): 1.7 ± 0.4 %ID/g; tissue uptake at 1 h ([1]; Balb/c nu/nu, muscle, PC-3 xenografts, 40 pmol / 30 kBq co-injected with 5 nmol NOTA-PEG2-RM26, average ± SD, read-out: Uptake in muscle, blocked): 0.032 ± 0.008 %ID/g; tissue uptake at 1 h ([1]; Balb/c nu/nu, pancreas, PC-3 xenografts, 40 pmol / 30 kBq co-injected with 5 nmol NOTA-PEG2-RM26, average ± SD, read-out: Uptake in pancreas, blocked): 1.4 ± 0.1 %ID/g; tissue uptake at 1 h ([1]; Balb/c nu/nu, spleen, PC-3 xenografts, 40 pmol / 30 kBq co-injected with 5 nmol NOTA-PEG2-RM26, average ± SD, read-out: Uptake in spleen, blocked): 0.13 ± 0.06 %ID/g; tissue to tissue ratio at 1 h ([1]; Balb/c nu/nu, tumor and blood, PC-3 xenografts, read-out: Tumor-to-blood ratio, non-blocked group): 30 ± 4; tissue to tissue ratio at 1 h ([1]; Balb/c nu/nu, tumor and bone, PC-3 xenografts, read-out: Tumor-to-bone ratio, non-blocked group): 78 ± 42; tissue to tissue ratio at 1 h ([1]; Balb/c nu/nu, tumor and kidneys, PC-3 xenografts, read-out: Tumor-to-kidneys ratio, non-blocked group): 1.3 ± 0.2; tissue to tissue ratio at 1 h ([1]; Balb/c nu/nu, tumor and liver, PC-3 xenografts, read-out: Tumor-to-liver ratio, non-blocked group): 2 ± 0.4; tissue to tissue ratio at 1 h ([1]; Balb/c nu/nu, tumor and muscle, PC-3 xenografts, read-out: Tumor-to-muscle ratio, non-blocked group): 125 ± 50; tissue to tissue ratio at 1 h ([1]; Balb/c nu/nu, tumor and pancreas, PC-3 xenografts, read-out: Tumor-to-pancreas ratio, non-blocked group): 1.1 ± 0.2; tissue to tissue ratio at 1 h ([1]; Balb/c nu/nu, tumor and spleen, PC-3 xenografts, read-out: Tumor-to-spleen ratio, non-blocked group): 51 ± 18; tissue uptake at 1 h ([1]; Balb/c nu/nu, tumor, PC-3 xenografts, 40 pmol / 30 kBq co-injected with 5 nmol NOTA-PEG2-RM26, average ± SD, read-out: Uptake in tumor, blocked): 0.89 ± 0.07 %ID/g; tissue uptake at 1 h ([1]; blood, Balb/c nu/nu mice with PC-3 xenografts, 40 pmol / 30 kBq, kit stored 18 months, average ± SD, read-out: Uptake in blood, non-blocked): 0.3 ± 0.2 %ID/g; tissue uptake at 1 h ([1]; bone, Balb/c nu/nu mice with PC-3 xenografts, 40 pmol / 30 kBq, kit stored 18 months, average ± SD, read-out: Uptake in bone, non-blocked): 0.09 ± 0.05 %ID/g; tissue uptake at 1 h ([1]; kidneys, Balb/c nu/nu mice with PC-3 xenografts, 40 pmol / 30 kBq, kit stored 18 months, average ± SD, read-out: Uptake in kidneys, non-blocked): 5 ± 0.4 %ID/g; tissue uptake at 1 h ([1]; liver, Balb/c nu/nu mice with PC-3 xenografts, 40 pmol / 30 kBq, kit stored 18 months, average ± SD, read-out: Uptake in liver, non-blocked): 2.9 ± 0.8 %ID/g; tissue uptake at 1 h ([1]; muscle, Balb/c nu/nu mice with PC-3 xenografts, 40 pmol / 30 kBq, kit stored 18 months, average ± SD, read-out: Uptake in muscle, non-blocked): 0.05 ± 0.02 %ID/g; tissue uptake at 1 h ([1]; pancreas, Balb/c nu/nu mice with PC-3 xenografts, 40 pmol / 30 kBq, kit stored 18 months, average ± SD, read-out: Uptake in pancreas, non-blocked): 6 ± 1 %ID/g; tissue uptake at 1 h ([1]; spleen, Balb/c nu/nu mice with PC-3 xenografts, 40 pmol / 30 kBq, kit stored 18 months, average ± SD, read-out: Uptake in spleen, non-blocked): 0.13 ± 0.05 %ID/g; tissue uptake at 1 h ([1]; tumor, Balb/c nu/nu mice with PC-3 xenografts, 40 pmol / 30 kBq, kit stored 18 months, average ± SD, read-out: Uptake in tumor, non-blocked): 6 ± 1 %ID/g; Difference in PC-3 tumor uptake between non-blocked and blocked groups (GRPR [2]): 6 fold; Difference in pancreatic uptake between non-blocked and blocked groups (GRPR [3]): 4 fold; Cell-associated radioactivity, non-blocked versus pre-blocked receptors (GRPR on PC-3 cells; freshly prepared kit, 1 h at 37 °C, pre-blocking with 1 µM NOTA-PEG2-RM26, p < 0.0001, n = 3): significant difference; Binding to non-blocked GRPR versus pre-blocked GRPR on PC-3 cells (GRPR on PC-3 cells; kit stored for 18 months, purified with Sep-Pak, pre-blocking with 1 µM NOTA-PEG2-RM26): significantly higher; Equilibrium dissociation constant (GRPR [4]): low nanomolar range; Absorbed doses in healthy organs and tissues [5]: low absorbed doses; Tolerability of single injections [5]: well tolerated
